Measured values published in PMC8152350, “High cytotoxicity of betulin towards fish and murine fibroblasts: Is betulin safe for nonneoplastic cells?” (BMC Veterinary Research, 2021).
Values after ≈ are worked out from the molar mass of the structure shown.

How the values were obtained:
GOTO = tested on: GOTO; design: method as in PMID 12697374; settings: GOTO neuroblastoma; read-out: IC50 of betulin; cited from earlier work
T47D (breast cancer) = tested on: T47D (breast cancer); design: method as in PMID 23595090; settings: SRB assay; cited from earlier work
U937 = tested on: U937; design: method as in PMID 12697374; settings: U937 leukaemia; read-out: IC50 of betulin; cited from earlier work
NIH/3T3 cells [1] = assay: LDH leakage assay (cellular membrane integrity), murine fibroblasts; format: cell-based, mouse; settings: NIH/3T3, 24 h
Procedure: (§1) All experiments were repeated three times.
The LDH assay measures leakage of the stable cytosolic enzyme lactate dehydrogenase into the culture medium, which is an indicator of irreversible cell membrane damage and cell death.
The LDH assay was performed using a commercially available kit (TOX7) (Sigma-Aldrich, Poland) according to the manufacturer’s protocol. The full description of the test procedure was also reported previously. The results obtained are reported as the percentage of LDH leakage to the culture media in control (nontreated) cells.

[2] = MTT assay (mitochondrial activity), fish fibroblasts; format: cell-based, bluegill; settings: bluegill, BF-2 caudal trunk fibroblasts, mean ± SD, n = 3
Procedure: (§2) BF-2 (ATCC CCL-91) bluegill caudal trunk fibroblasts were grown in minimum essential medium (Eagle, EBSS) supplemented with 1 % nonessential amino acids (NEAAs), 10 % foetal bovine serum and 1 % antibiotic-antimycotic solution at 23 °C in a humidified atmosphere with 5 % CO2.
as §1

BF-2 cells = assay: as above; format: cell-based, bluegill; settings: fish cells
Procedure: as §2, §1

A-549 = tested on: A-549; design: method as in PMID 16787747; settings: read-out: IC50 of betulin; cited from earlier work
[3] = tested on: B16 cells (B164A5 and B16F10); design: method as in PMID 25756279; settings: 150 µM betulin; cited from earlier work
G361 = tested on: G361; design: method as in PMID 12697374; settings: G361 melanoma; read-out: IC50 of betulin; cited from earlier work
P388 (murine leukaemia) = tested on: P388 (murine leukaemia); design: method as in PMID 23595090; settings: P388, MTT assay; cited from earlier work
MCF-7 (breast cancer) = tested on: MCF-7 (breast cancer); design: method as in PMID 22627971, PMID 23379693; settings: MCF-7, 20 µM; cited from earlier work
[4] = MTT assay (mitochondrial activity), murine fibroblasts; settings: mouse
Procedure: (§3) NIH/3T3 (ATCC CRL-1658) mouse embryonic fibroblasts were grown in Dulbecco’s modified Eagle’s medium (DMEM) supplemented with 2 mM glutamine, 10 % foetal bovine serum and a 1 % antibiotic-antimycotic solution at 37 °C in a humidified atmosphere with 5 % CO2.
(§4) NIH/3T3 and BF-2 cells were seeded in 96-well plates at a density of 1 × 10^4 or 2 × 10^4 cells per well, respectively. After 24 h of incubation at an appropriate temperature, cells were exposed to betulin at the concentrations mentioned above for 24, 48 and 72 h. Control (untreated) cells served as the negative control and a reference point. Triton X-100 treated cells served as the positive internal control in MTT, NRU and LDH assays. Due to the specific character of SRB assay, there was no positive control in this test. After 24, 48 and 72 h of treatment, the four different cytotoxicity assays were performed. All experiments were repeated three times.
(§5) The MTT assay is used to estimate mitochondrial damage, since it determines the activity of mitochondrial enzymes. These enzymes reduce the water-soluble tetrazolium dye MTT to insoluble purple formazan, which accumulates inside viable cells.
(§6) The MTT assay was conducted using the protocol described by Mosmann, with some modifications described in our previous article.
(§7) The MTT assay was used to determine the cytotoxicity of both betulin and the vehicle (DMSO).
(§8) All experiments were repeated three times. […] Statistical analyses were performed using GraphPad Prism software (GraphPad Software, USA). Data were subjected to one-way analysis of variance (ANOVA). Dunnett’s posttest was used to determine differences between control and betulin-exposed cells at the same time points. Differences between the two cell lines at the same time points were determined using Student’s t-test. The 50 % cytotoxic concentrations (CC50, defined as the concentration of the compound that reduced cell viability by 50 %) were calculated using the Quest Graph™ ED50 Calculator (AAT Bioquest, Inc.).

NIH/3T3 cells [5] = assay: as above
Procedure: as §3, §4, §5, §6, §7, §8

[6] = tested on: SW707 (colorectal adenocarcinoma); design: method as in PMID 23595090; settings: SW707, SRB assay; cited from earlier work
Bcap-37 (breast cancer) = tested on: Bcap-37 (breast cancer); design: method as in PMID 22627971, PMID 23379693; settings: Bcap-37, 20 µM; cited from earlier work
B16-F1 (mouse melanoma) = tested on: B16-F1 (mouse melanoma); design: method as in PMID 16787747; settings: read-out: IC50 of betulin; cited from earlier work
K562 = tested on: K562; design: method as in PMID 12697374; settings: K562 leukaemia; read-out: IC50 of betulin; cited from earlier work

In the case of `C=C(C)[C@@H]1CC[C@]2(CO)CC[C@]3(C)[C@H](CC[C@@H]4[C@@]5(C)CC[C@H](O)C(C)(C)[C@@H]5CC[C@]43C)[C@@H]12` [betulin, Betulin], the IC50 (GOTO) is listed as 17.1 µM, the IC50 of betulin (T47D (breast cancer)) is listed as 32.4 µg/mL and the IC50 (U937) is listed as 14.4 µM. The “betulin concentration inducing substantial LDH leakage” value (NIH/3T3 cells [1]) was 7.8 µg/mL, the CC50 at 24 h ([2]; BF-2, 24 h, read-out: CC50 betulin MTT 24 h) was 3.39 ± 0.903 µg/mL (≈ 7.67 µM) and the CC50 at 48 h ([2]; BF-2, 48 h, read-out: CC50 betulin MTT 48 h) was 2.75 ± 1.05 µg/mL (≈ 6.21 µM). The CC50 at 72 h ([2]; BF-2, 72 h, read-out: CC50 betulin MTT 72 h) was 3.02 ± 1.03 µg/mL (≈ 6.82 µM), the “betulin concentration causing statistically significant decrease in viability (MTT)” value (BF-2 cells; 24 h) was no less than 1.95 µg/mL and the “lower betulin concentration causing considerable decrease in viability (MTT)” value (BF-2 cells; starting at 48 h of incubation) was 0.976 µg/mL. For the same molecule, the IC50 (A-549) was 3.8 µM, the “trypan blue exclusion capacity” value [3] was 60% and the IC50 (G361) was 12.4 µM. The IC50 of betulin (P388 (murine leukaemia)) was 5.5 µg/mL, the “inhibitory activity of betulin” value (MCF-7 (breast cancer)) was 53.2% and the CC50 at 24 h [4] was 1.532 ± 0.005 µg/mL (≈ 3.46 µM). For the same molecule, the CC50 at 48 h [4] was 1.58 ± 0.64 µg/mL (≈ 3.58 µM), the CC50 at 72 h [4] was 1.85 ± 0.647 µg/mL (≈ 4.19 µM) and the “decrease in cell viability in the MTT assay” value (NIH/3T3 cells [5]; NIH/3T3, betulin 7.8 µg/mL, 72 h) was “approximately 80%”. The “betulin concentration causing statistically significant decrease in viability (MTT)” value (NIH/3T3 cells [5]; mouse cells, 24 h, threshold persisted until termination of the experiment) was no less than 1.95 µg/mL, the IC50 of betulin [6] was 22.9 µg/mL and the “inhibitory activity of betulin” value (Bcap-37 (breast cancer)) was 53.2%. The IC50 (B16-F1 (mouse melanoma)) was 13.8 µM and the IC50 (K562) was 14.5 µM.
